Assay results from ChEMBL document CHEMBL5579809, “Exploration of bromodomain ligand-linker conjugation sites for efficient CBP/p300 heterobifunctional degrader activity” (Bioorg Med Chem Lett, 2024).
Active and inactive are the calls of the source. No cut-off for these calls is given here.

Experiments:
[1] = target: T1, Protein cereblon/CREB-binding protein (Homo sapiens) (UniProt Q92793+Q96SW2); experiment: PROTAC activity at CRBN/HiBiT-tagged CBP in human HAP1 cells assessed as induction of CBP degradation by measuring maximal efficacy at 0.1 nM measured over 24 hrs by luminescence based analysis relative to control; type: cell-based
[2] = target: T1, Protein cereblon/CREB-binding protein (Homo sapiens); experiment: PROTAC activity at CRBN/HiBiT-tagged CBP in human HAP1 cells assessed as induction of CBP degradation by measuring maximal efficacy at 1 nM measured over 24 hrs by luminescence based analysis relative to control; type: cell-based
[3] = target: T1, Protein cereblon/CREB-binding protein (Homo sapiens); experiment: PROTAC activity at CRBN/HiBiT-tagged CBP in human HAP1 cells assessed as induction of CBP degradation by measuring maximal efficacy at 10 nM measured over 24 hrs by luminescence based analysis relative to control; type: cell-based
[4] = target: T1, Protein cereblon/CREB-binding protein (Homo sapiens); experiment: PROTAC activity at CRBN/HiBiT-tagged CBP in human HAP1 cells assessed as induction of CBP degradation by measuring maximal efficacy at 100 nM measured over 24 hrs by luminescence based analysis relative to control; type: cell-based
[5] = target: T1, Protein cereblon/CREB-binding protein (Homo sapiens); experiment: PROTAC activity at CRBN/HiBiT-tagged CBP in human HAP1 cells assessed as induction of CBP degradation by measuring maximal efficacy at 1000 nM measured over 24 hrs by luminescence based analysis relative to control; type: cell-based
[6] = target: T1, Protein cereblon/CREB-binding protein (Homo sapiens); experiment: PROTAC activity at CRBN/HiBiT-tagged CBP in human HAP1 cells assessed as induction of CBP degradation by measuring degradation rate at 0.1 nM measured over 24 hrs by luminescence based analysis; type: cell-based
[7] = target: T1, Protein cereblon/CREB-binding protein (Homo sapiens); experiment: PROTAC activity at CRBN/HiBiT-tagged CBP in human HAP1 cells assessed as induction of CBP degradation by measuring degradation rate at 1 nM measured over 24 hrs by luminescence based analysis; type: cell-based
[8] = target: T1, Protein cereblon/CREB-binding protein (Homo sapiens); experiment: PROTAC activity at CRBN/HiBiT-tagged CBP in human HAP1 cells assessed as induction of CBP degradation by measuring degradation rate at 10 nM measured over 24 hrs by luminescence based analysis; type: cell-based
[9] = target: T1, Protein cereblon/CREB-binding protein (Homo sapiens); experiment: PROTAC activity at CRBN/HiBiT-tagged CBP in human HAP1 cells assessed as induction of CBP degradation by measuring degradation rate at 100 nM measured over 24 hrs by luminescence based analysis; type: cell-based
[10] = target: T1, Protein cereblon/CREB-binding protein (Homo sapiens); experiment: PROTAC activity at CRBN/HiBiT-tagged CBP in human HAP1 cells assessed as induction of CBP degradation by measuring degradation rate at 1000 nM measured over 24 hrs by luminescence based analysis; type: cell-based
[11] = target: T1, Protein cereblon/CREB-binding protein (Homo sapiens); experiment: PROTAC activity at CRBN/HiBiT-tagged CBP in human HAP1 cells assessed as total cumulative degradation by measuring AUC at 0.01 nM measured over 24 hrs by luminescence based analysis; type: cell-based
[12] = target: T1, Protein cereblon/CREB-binding protein (Homo sapiens); experiment: PROTAC activity at CRBN/HiBiT-tagged CBP in human HAP1 cells assessed as total cumulative degradation by measuring AUC at 0.1 nM measured over 24 hrs by luminescence based analysis; type: cell-based
[13] = target: T1, Protein cereblon/CREB-binding protein (Homo sapiens); experiment: PROTAC activity at CRBN/HiBiT-tagged CBP in human HAP1 cells assessed as total cumulative degradation by measuring AUC at 1 nM measured over 24 hrs by luminescence based analysis; type: cell-based
[14] = target: T1, Protein cereblon/CREB-binding protein (Homo sapiens); experiment: PROTAC activity at CRBN/HiBiT-tagged CBP in human HAP1 cells assessed as total cumulative degradation by measuring AUC at 10 nM measured over 24 hrs by luminescence based analysis; type: cell-based
[15] = target: T1, Protein cereblon/CREB-binding protein (Homo sapiens); experiment: PROTAC activity at CRBN/HiBiT-tagged CBP in human HAP1 cells assessed as total cumulative degradation by measuring AUC at 100 nM measured over 24 hrs by luminescence based analysis; type: cell-based
[16] = target: T1, Protein cereblon/CREB-binding protein (Homo sapiens); experiment: PROTAC activity at CRBN/HiBiT-tagged CBP in human HAP1 cells assessed as total cumulative degradation by measuring AUC at 1000 nM measured over 24 hrs by luminescence based analysis; type: cell-based
[17] = target: T2, Protein cereblon/Histone acetyltransferase p300 (Homo sapiens) (UniProt Q09472+Q96SW2); experiment: PROTAC activity at CRBN/HiBiT-tagged p300 in human HAP1 cells assessed as induction of p300 degradation by measuring degradation rate at 0.1 nM measured over 24 hrs by luminescence based analysis; type: cell-based
[18] = target: T2, Protein cereblon/Histone acetyltransferase p300 (Homo sapiens); experiment: PROTAC activity at CRBN/HiBiT-tagged p300 in human HAP1 cells assessed as induction of p300 degradation by measuring degradation rate at 1 nM measured over 24 hrs by luminescence based analysis; type: cell-based
[19] = target: T2, Protein cereblon/Histone acetyltransferase p300 (Homo sapiens); experiment: PROTAC activity at CRBN/HiBiT-tagged p300 in human HAP1 cells assessed as induction of p300 degradation by measuring degradation rate at 10 nM measured over 24 hrs by luminescence based analysis; type: cell-based
[20] = target: T2, Protein cereblon/Histone acetyltransferase p300 (Homo sapiens); experiment: PROTAC activity at CRBN/HiBiT-tagged p300 in human HAP1 cells assessed as induction of p300 degradation by measuring degradation rate at 100 nM measured over 24 hrs by luminescence based analysis; type: cell-based
[21] = target: T2, Protein cereblon/Histone acetyltransferase p300 (Homo sapiens); experiment: PROTAC activity at CRBN/HiBiT-tagged p300 in human HAP1 cells assessed as induction of p300 degradation by measuring degradation rate at 1000 nM measured over 24 hrs by luminescence based analysis; type: cell-based
[22] = target: T2, Protein cereblon/Histone acetyltransferase p300 (Homo sapiens); experiment: PROTAC activity at CRBN/HiBiT-tagged p300 in human HAP1 cells assessed as induction of p300 degradation by measuring maximal efficacy at 0.1 nM measured over 24 hrs by luminescence based analysis relative to control; type: cell-based
[23] = target: T2, Protein cereblon/Histone acetyltransferase p300 (Homo sapiens); experiment: PROTAC activity at CRBN/HiBiT-tagged p300 in human HAP1 cells assessed as induction of p300 degradation by measuring maximal efficacy at 1 nM measured over 24 hrs by luminescence based analysis relative to control; type: cell-based
[24] = target: T2, Protein cereblon/Histone acetyltransferase p300 (Homo sapiens); experiment: PROTAC activity at CRBN/HiBiT-tagged p300 in human HAP1 cells assessed as induction of p300 degradation by measuring maximal efficacy at 10 nM measured over 24 hrs by luminescence based analysis relative to control; type: cell-based
[25] = target: T2, Protein cereblon/Histone acetyltransferase p300 (Homo sapiens); experiment: PROTAC activity at CRBN/HiBiT-tagged p300 in human HAP1 cells assessed as induction of p300 degradation by measuring maximal efficacy at 100 nM measured over 24 hrs by luminescence based analysis relative to control; type: cell-based
[26] = target: T2, Protein cereblon/Histone acetyltransferase p300 (Homo sapiens); experiment: PROTAC activity at CRBN/HiBiT-tagged p300 in human HAP1 cells assessed as induction of p300 degradation by measuring maximal efficacy at 1000 nM measured over 24 hrs by luminescence based analysis relative to control; type: cell-based
[27] = target: T2, Protein cereblon/Histone acetyltransferase p300 (Homo sapiens); experiment: PROTAC activity at CRBN/HiBiT-tagged p300 in human HAP1 cells assessed as total cumulative degradation by measuring AUC at 0.01 nM measured over 24 hrs by luminescence based analysis; type: cell-based
[28] = target: T2, Protein cereblon/Histone acetyltransferase p300 (Homo sapiens); experiment: PROTAC activity at CRBN/HiBiT-tagged p300 in human HAP1 cells assessed as total cumulative degradation by measuring AUC at 0.1 nM measured over 24 hrs by luminescence based analysis; type: cell-based
[29] = target: T2, Protein cereblon/Histone acetyltransferase p300 (Homo sapiens); experiment: PROTAC activity at CRBN/HiBiT-tagged p300 in human HAP1 cells assessed as total cumulative degradation by measuring AUC at 1 nM measured over 24 hrs by luminescence based analysis; type: cell-based
[30] = target: T2, Protein cereblon/Histone acetyltransferase p300 (Homo sapiens); experiment: PROTAC activity at CRBN/HiBiT-tagged p300 in human HAP1 cells assessed as total cumulative degradation by measuring AUC at 10 nM measured over 24 hrs by luminescence based analysis; type: cell-based
[31] = target: T2, Protein cereblon/Histone acetyltransferase p300 (Homo sapiens); experiment: PROTAC activity at CRBN/HiBiT-tagged p300 in human HAP1 cells assessed as total cumulative degradation by measuring AUC at 100 nM measured over 24 hrs by luminescence based analysis; type: cell-based
[32] = target: T2, Protein cereblon/Histone acetyltransferase p300 (Homo sapiens); experiment: PROTAC activity at CRBN/HiBiT-tagged p300 in human HAP1 cells assessed as total cumulative degradation by measuring AUC at 1000 nM measured over 24 hrs by luminescence based analysis; type: cell-based
[33] = target: Protein cereblon/Bromodomain-containing protein 4 (Homo sapiens) (UniProt O60885+Q96SW2); experiment: PROTAC activity at CRBN/HiBiT-tagged BRD4 in human HAP1 cells assessed as induction of BRD4 degradation measured over 24 hrs by luminescence based analysis; type: cell-based
[34] = target: T2, Protein cereblon/Histone acetyltransferase p300 (Homo sapiens); experiment: Binding affinity to recombinant CRBN/p300 bromodomain (unknown origin) assessed as ternary complex formation at 1 to 1000 nM by Alphascreen-based proximity assay; type: protein assay; conditions: dose 1-1000 nM
[35] = target: T1, Protein cereblon/CREB-binding protein (Homo sapiens); experiment: Binding affinity to recombinant CRBN/CBP bromodomain (unknown origin) assessed as ternary complex formation at 1 to 1000 nM by Alphascreen-based proximity assay; type: protein assay; conditions: dose 1-1000 nM
[36] = target: T2, Protein cereblon/Histone acetyltransferase p300 (Homo sapiens); experiment: Binding affinity to recombinant CRBN/p300 bromodomain (unknown origin) assessed as ternary complex formation at 10 to 100 nM by Alphascreen-based proximity assay; type: protein assay; conditions: dose 10-100 nM
[37] = target: T1, Protein cereblon/CREB-binding protein (Homo sapiens); experiment: Binding affinity to recombinant CRBN/CBP bromodomain (unknown origin) assessed as ternary complex formation at 10 to 100 nM by Alphascreen-based proximity assay; type: protein assay; conditions: dose 10-100 nM

T2 sequence (Q09472 2-2414 limits assumed): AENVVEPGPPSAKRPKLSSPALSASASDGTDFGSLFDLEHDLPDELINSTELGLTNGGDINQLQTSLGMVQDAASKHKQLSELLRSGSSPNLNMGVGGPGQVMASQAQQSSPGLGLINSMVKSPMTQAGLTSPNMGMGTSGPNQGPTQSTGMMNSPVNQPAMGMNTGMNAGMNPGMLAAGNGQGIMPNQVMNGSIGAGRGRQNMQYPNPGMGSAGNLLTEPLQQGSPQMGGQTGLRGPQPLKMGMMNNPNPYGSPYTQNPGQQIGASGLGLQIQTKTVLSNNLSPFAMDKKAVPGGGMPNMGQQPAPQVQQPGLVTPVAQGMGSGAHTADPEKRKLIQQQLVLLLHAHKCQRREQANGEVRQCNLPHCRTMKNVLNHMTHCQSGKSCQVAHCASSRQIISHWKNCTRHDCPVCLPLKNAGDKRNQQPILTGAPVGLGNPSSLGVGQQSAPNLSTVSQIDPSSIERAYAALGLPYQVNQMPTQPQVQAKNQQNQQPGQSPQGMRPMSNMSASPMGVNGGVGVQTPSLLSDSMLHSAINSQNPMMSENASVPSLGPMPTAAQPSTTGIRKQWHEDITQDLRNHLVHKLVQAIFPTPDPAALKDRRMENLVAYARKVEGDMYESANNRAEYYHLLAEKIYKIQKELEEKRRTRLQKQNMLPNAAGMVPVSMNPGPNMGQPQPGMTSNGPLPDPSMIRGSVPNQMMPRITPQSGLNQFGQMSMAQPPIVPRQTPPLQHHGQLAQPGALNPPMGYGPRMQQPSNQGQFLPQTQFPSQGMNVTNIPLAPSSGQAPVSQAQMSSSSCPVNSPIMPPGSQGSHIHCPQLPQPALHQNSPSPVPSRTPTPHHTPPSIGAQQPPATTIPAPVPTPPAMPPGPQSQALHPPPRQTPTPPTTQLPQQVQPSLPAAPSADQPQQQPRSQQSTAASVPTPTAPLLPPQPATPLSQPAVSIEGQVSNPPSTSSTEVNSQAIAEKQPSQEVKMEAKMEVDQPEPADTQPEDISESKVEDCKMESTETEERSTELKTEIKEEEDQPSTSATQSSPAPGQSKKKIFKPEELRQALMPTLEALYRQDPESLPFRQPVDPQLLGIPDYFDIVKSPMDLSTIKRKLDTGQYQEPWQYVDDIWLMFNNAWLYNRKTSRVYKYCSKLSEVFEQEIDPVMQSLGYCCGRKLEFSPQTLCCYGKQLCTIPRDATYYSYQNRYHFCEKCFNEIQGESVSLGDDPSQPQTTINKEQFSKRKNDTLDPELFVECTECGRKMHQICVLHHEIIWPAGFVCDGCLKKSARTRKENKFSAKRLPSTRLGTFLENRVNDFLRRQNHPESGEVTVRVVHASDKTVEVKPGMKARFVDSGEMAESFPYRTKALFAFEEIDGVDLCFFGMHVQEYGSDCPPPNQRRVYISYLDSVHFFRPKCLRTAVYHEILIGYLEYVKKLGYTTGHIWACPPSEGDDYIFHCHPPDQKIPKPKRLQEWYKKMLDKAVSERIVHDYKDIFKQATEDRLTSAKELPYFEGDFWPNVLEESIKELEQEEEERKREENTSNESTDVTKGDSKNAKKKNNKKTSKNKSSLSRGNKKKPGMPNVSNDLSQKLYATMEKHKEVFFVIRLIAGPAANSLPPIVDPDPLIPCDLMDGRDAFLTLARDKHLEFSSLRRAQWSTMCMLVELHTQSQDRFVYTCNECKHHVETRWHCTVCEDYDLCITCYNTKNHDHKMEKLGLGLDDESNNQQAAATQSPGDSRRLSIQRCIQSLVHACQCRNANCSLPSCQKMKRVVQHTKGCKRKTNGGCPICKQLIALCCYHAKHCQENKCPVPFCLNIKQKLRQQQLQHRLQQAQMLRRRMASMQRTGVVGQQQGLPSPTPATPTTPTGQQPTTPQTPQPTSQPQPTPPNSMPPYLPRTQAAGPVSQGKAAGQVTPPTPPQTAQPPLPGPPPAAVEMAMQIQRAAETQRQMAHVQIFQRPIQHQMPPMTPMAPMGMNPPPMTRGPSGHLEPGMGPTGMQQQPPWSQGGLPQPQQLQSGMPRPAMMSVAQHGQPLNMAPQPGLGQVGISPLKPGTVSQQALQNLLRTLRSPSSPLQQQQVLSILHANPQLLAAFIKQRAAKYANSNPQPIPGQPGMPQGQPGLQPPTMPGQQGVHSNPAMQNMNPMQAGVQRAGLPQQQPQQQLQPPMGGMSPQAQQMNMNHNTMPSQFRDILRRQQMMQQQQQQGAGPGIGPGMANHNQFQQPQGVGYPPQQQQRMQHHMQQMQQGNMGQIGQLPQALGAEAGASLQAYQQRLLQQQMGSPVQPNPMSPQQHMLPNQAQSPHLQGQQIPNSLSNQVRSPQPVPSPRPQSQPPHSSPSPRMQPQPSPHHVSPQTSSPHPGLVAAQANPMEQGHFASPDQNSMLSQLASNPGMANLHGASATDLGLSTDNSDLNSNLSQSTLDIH
T2 sequence (Q96SW2 whole entry partner): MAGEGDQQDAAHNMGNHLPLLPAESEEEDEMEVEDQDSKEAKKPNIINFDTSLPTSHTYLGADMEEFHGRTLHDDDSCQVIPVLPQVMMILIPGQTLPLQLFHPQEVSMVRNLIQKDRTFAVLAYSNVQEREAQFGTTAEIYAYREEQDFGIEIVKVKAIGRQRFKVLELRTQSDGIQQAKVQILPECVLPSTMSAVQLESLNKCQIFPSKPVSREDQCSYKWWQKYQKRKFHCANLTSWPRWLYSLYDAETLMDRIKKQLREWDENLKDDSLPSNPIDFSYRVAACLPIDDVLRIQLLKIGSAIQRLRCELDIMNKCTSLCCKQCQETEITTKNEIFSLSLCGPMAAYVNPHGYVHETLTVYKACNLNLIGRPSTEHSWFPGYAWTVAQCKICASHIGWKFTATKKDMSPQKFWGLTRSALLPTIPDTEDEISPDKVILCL
Protein cereblon/Bromodomain-containing protein 4 (Homo sapiens), sequence (Q96SW2 whole entry, looked up, other chains not shown): as the sequence (Q96SW2 whole entry partner) above

For `CNC(=O)N1CCc2c(c(N3CCCc4cc(-c5cnn(C)c5)c(C(F)F)cc43)nn2C2CCN(C(=O)CCOCCOCCOCCOCCNc3ccc4c(c3)C(=O)N(C3CCC(=O)NC3=O)C4=O)CC2)C1` (stereo not given), the Emax [1] was 25%, the Emax [2] was 63% and the Emax [3] was 86%. The Emax [4] was 89%, the Emax [5] was 83% and the Activity [6] was 0.12 h⁻¹. The Activity [7] was 0.54 h⁻¹, the Activity [8] was 1.1 h⁻¹ and the Activity [9] was 0.81 h⁻¹. It also gave an Activity [10] of 0.4 h⁻¹, an AUC [11] of 24.7 and an AUC [12] of 20.7. For the same compound, the AUC [13] was 10.4, the AUC [14] was 4.4 and the AUC [15] was 3.9. For the same compound, the AUC [16] was 6.4, the Activity [17] was 0.02 h⁻¹ and the Activity [18] was 0.37 h⁻¹. The Activity [19] was 1 h⁻¹, the Activity [20] was 1 h⁻¹ and the Activity [21] was 0.57 h⁻¹. It also gave an Emax [22] of 27%, an Emax [23] of 57% and an Emax [24] of 83%. The Emax [25] was 88%, the Emax [26] was 86% and the AUC [27] was 26.1. It also gave an AUC [28] of 21.7, an AUC [29] of 12.2 and an AUC [30] of 5.1. The AUC [31] was 3.7, the AUC [32] was 4.8 and the Activity [33] was “inactive”. The Activity [34] was “Active” and the Activity [35] was “Active”.
For `CNC(=O)N1CCc2c(c(N3CCCc4cc(-c5cnn(C)c5)c(C(F)(F)F)cc43)nn2C2CCN(C(=O)CCOCCOCCOCCOCCNc3ccc4c(c3)C(=O)N(C3CCC(=O)NC3=O)C4=O)CC2)C1` (stereo not given), the Emax [1] was 20%, the Emax [2] was 61% and the Emax [3] was 85%. For the same compound, the Emax [4] was 88%, the Emax [5] was 80% and the Activity [6] was 0.21 h⁻¹. The Activity [7] was 0.63 h⁻¹, the Activity [8] was 1.3 h⁻¹ and the Activity [9] was 0.83 h⁻¹. For the same compound, the Activity [10] was 0.32 h⁻¹, the AUC [11] was 24.1 and the AUC [12] was 20.8. It also gave an AUC [13] of 10.7, an AUC [14] of 4.4 and an AUC [15] of 4. For the same compound, the AUC [16] was 7.4, the Activity [17] was 1 10^-4/hr and the Activity [18] was 0.41 h⁻¹. It also gave an Activity [19] of 1.3 h⁻¹, an Activity [20] of 1 h⁻¹ and an Activity [21] of 0.42 h⁻¹. It also gave an Emax [22] of 17%, an Emax [23] of 56% and an Emax [24] of 82%. It also gave an Emax [25] of 88%, an Emax [26] of 84% and an AUC [27] of 26.5. It also gave an AUC [28] of 23.2, an AUC [29] of 12.3 and an AUC [30] of 5.2. The AUC [31] was 3.9, the AUC [32] was 6 and the Activity [33] was “inactive”. For the same compound, the Activity [36] was “Active” and the Activity [37] was “Active”.
